Each compound was assayed on HepG2-A16-CD81EGFP cells (assay: not given). Conditions: human, 50 uM.
For `COc1ccc(CNC2CCN(c3ccc(NC(=O)c4cccc(Cl)c4)cc3)CC2)cc1OC` [MMV666067], the “HepG2 Tox% @ 50 uM rep1” value was 98% and the “HepG2 Tox% @ 50 uM rep2” value was 99%. For `COc1ccc(CCN2CCC(CN(C)Cc3cnn(-c4ccccc4)c3)CC2)cc1` [MMV666069], the “HepG2 Tox% @ 50 uM rep1” value was 99% and the “HepG2 Tox% @ 50 uM rep2” value was 100%. For `COc1ccccc1C(=O)ON=C(N)Cc1cccc2ccccc12` [MMV666686], the “HepG2 Tox% @ 50 uM rep1” value was 101%.

The compounds below were run on HepG2-A16-CD81EGFP cells (assay: cells). Conditions: Homo sapiens, HepG2, read-out: % inhibition.
Work on `CCn1c2c(c(=N)c3c1CCC3)CCCC2` [MMV000340] yielded an inhibition at 50 µM of 75.3%. For `CCOc1ccc2c(c1)CN(Cc1ccc(Cl)cc1)CO2` [MMV000443], the inhibition at 50 µM was 95.5%. In the case of `COc1ccc(-c2cc(=O)oc3c4c(ccc23)OCN(Cc2ccc(F)cc2)C4)cc1` [MMV000604], the inhibition at 50 µM is reported as 57.1%. Work on `COc1ccc(C(O)(CCC(C)C)C(CN2CCOCC2)c2ccc(Cl)cc2)cc1` (centres unmarked) [MMV000617] yielded an inhibition at 50 µM of 98.4%. For `CCCCCCC(O)(c1ccc(F)cc1)C(CN1CCOCC1)c1ccccc1` (centres unmarked) [MMV000621], the inhibition at 50 µM was 98.1%. `COc1ccc2sc(N(Cc3cccnc3)C(=O)c3ccc(C#N)cc3)nc2c1` [MMV001239] gave an inhibition at 50 µM of 63.2%. `O=C1c2ccccc2C2=Nc3ccccc3SC(c3cccc(F)c3)C12` (centres unmarked) [MMV006389] showed an inhibition at 50 µM of 96.2%. In the case of `CCOc1ccc2nc(C)cc(Nc3ccc(Br)cc3)c2c1` [MMV006522], the inhibition at 50 µM is reported as 98.8%. `CCOc1c(Br)cc(C2C(C(=O)OC)=CN(C)C=C2C(=O)OC)cc1OC` [MMV006764] gave an inhibition at 50 µM of 31.2%. For `OC1=C2C(=Nc3ccccc3SC2c2ccc(Br)cc2)c2ccccc21` (centres unmarked) [MMV007127], the inhibition at 50 µM was 64.3%. With `COc1ccc(OC)c(C2C3=C(CC(C)(C)CC3=O)N(c3ccc(Cl)c(Cl)c3)C3=C2C(=O)CC(C)(C)C3)c1` [MMV007208] the inhibition at 50 µM was -4.26%. `Cc1cccc(N2C(=O)C3C(C2=O)C2(c4ccccc4)C(=O)C3(c3ccccc3)C(c3ccc4c(c3)OCO4)=C2c2ccc3c(c2)OCO3)c1` (centres unmarked) [MMV007228] was tested, and the inhibition at 50 µM was -4.28%. `Clc1ccc2c(N3CCCC3)ccnc2c1` [MMV007363] showed an inhibition at 50 µM of 39.1%. `Cc1ccccc1OCCSc1nc2ccc(NC(=O)c3cccs3)cc2s1` [MMV007396] gave an inhibition at 50 µM of 37.1%. In the case of `COc1cc2c3cc1Oc1c(OC)c(OC)cc4c1C(Cc1ccc(O)c(c1)Oc1ccc(cc1)CC3N(C)CC2)N(C)CC4` (centres unmarked) [MMV007474], the inhibition at 50 µM is reported as 99.3%. In the case of `O=C(Nc1ccc(C23CC4CC(CC(c5ccccc5)(C4)C2)C3)cc1)c1cccs1` [MMV007574], the inhibition at 50 µM is reported as 83.6%. With `Cc1ccccc1OCCSc1nc2ccc(NC(=O)c3ccccc3)cc2s1` [MMV007577] the inhibition at 50 µM was 67.4%. For `CCCCc1c(CCC)c(=N)c2ccccc2n1C` [MMV007764], the inhibition at 50 µM was 83.9%. `CCOc1ccccc1NC(=O)CN1CCN(C(=O)c2ccco2)CC1` [MMV007791] was tested, and the inhibition at 50 µM was -15%. With `CCCCN(CCCC)S(=O)(=O)c1ccc(NC(=O)c2ccco2)cc1` [MMV007881] the inhibition at 50 µM was 94.7%. `CN1C=C(c2ccc3ccccc3n2)C(c2c[nH]c3ccccc23)c2ccccc21` (centres unmarked) [MMV008160] showed an inhibition at 50 µM of 91.2%. `COc1cc(OC)cc(N2C(=O)N(Cc3ccc(C(C)(C)C)cc3)c3ccccc3S2(=O)=O)c1` [MMV008173] was tested, and the inhibition at 50 µM was -9.98%. In the case of `COc1ccc(C2C(C(=O)Nc3cccc(OC)c3)c3ccccc3C(=O)N2C2CCCCC2)cc1` (centres unmarked) [MMV008455], the inhibition at 50 µM is reported as 28%. In the case of `CCCn1c(=N)c(C(=O)NC2CCCCC2)cc2c(=O)n3cccc(C)c3nc21` [MMV008829], the inhibition at 50 µM is reported as -21%.

Each compound was assayed on Plasmodium berghei (Pb-Luc) exoerythrocytic-stage parasites (assay: microbe, parasite or virus in culture). Conditions: read-out: Inhibition% @ 50 uM rep1.
With `CCn1c2c(c(=N)c3c1CCC3)CCCC2` [MMV000340] the inhibition at 50 µM was 102%. In the case of `CCOc1ccc2c(c1)CN(Cc1ccc(Cl)cc1)CO2` [MMV000443], the inhibition at 50 µM is reported as 102%. Work on `COc1ccc(-c2cc(=O)oc3c4c(ccc23)OCN(Cc2ccc(F)cc2)C4)cc1` [MMV000604] yielded an inhibition at 50 µM of 100%. With `COc1ccc(C(O)(CCC(C)C)C(CN2CCOCC2)c2ccc(Cl)cc2)cc1` (centres unmarked) [MMV000617] the inhibition at 50 µM was 103%. Compound `CCCCCCC(O)(c1ccc(F)cc1)C(CN1CCOCC1)c1ccccc1` (centres unmarked) [MMV000621] has an inhibition at 50 µM of 104%. Compound `COc1ccc2sc(N(Cc3cccnc3)C(=O)c3ccc(C#N)cc3)nc2c1` [MMV001239] has an inhibition at 50 µM of 73%. `O=C1c2ccccc2C2=Nc3ccccc3SC(c3cccc(F)c3)C12` (centres unmarked) [MMV006389] gave an inhibition at 50 µM of 102%. Compound `CCOc1ccc2nc(C)cc(Nc3ccc(Br)cc3)c2c1` [MMV006522] has an inhibition at 50 µM of 102%. Compound `CCOc1c(Br)cc(C2C(C(=O)OC)=CN(C)C=C2C(=O)OC)cc1OC` [MMV006764] has an inhibition at 50 µM of 103%. Work on `OC1=C2C(=Nc3ccccc3SC2c2ccc(Br)cc2)c2ccccc21` (centres unmarked) [MMV007127] yielded an inhibition at 50 µM of 103%. With `COc1ccc(OC)c(C2C3=C(CC(C)(C)CC3=O)N(c3ccc(Cl)c(Cl)c3)C3=C2C(=O)CC(C)(C)C3)c1` [MMV007208] the inhibition at 50 µM was -11%. Compound `Cc1cccc(N2C(=O)C3C(C2=O)C2(c4ccccc4)C(=O)C3(c3ccccc3)C(c3ccc4c(c3)OCO4)=C2c2ccc3c(c2)OCO3)c1` (centres unmarked) [MMV007228] has an inhibition at 50 µM of 57%. With `Clc1ccc2c(N3CCCC3)ccnc2c1` [MMV007363] the inhibition at 50 µM was 91%. With `Cc1ccccc1OCCSc1nc2ccc(NC(=O)c3cccs3)cc2s1` [MMV007396] the inhibition at 50 µM was 103%. `COc1cc2c3cc1Oc1c(OC)c(OC)cc4c1C(Cc1ccc(O)c(c1)Oc1ccc(cc1)CC3N(C)CC2)N(C)CC4` (centres unmarked) [MMV007474] was tested, and the inhibition at 50 µM was 104%. With `O=C(Nc1ccc(C23CC4CC(CC(c5ccccc5)(C4)C2)C3)cc1)c1cccs1` [MMV007574] the inhibition at 50 µM was 103%. Work on `Cc1ccccc1OCCSc1nc2ccc(NC(=O)c3ccccc3)cc2s1` [MMV007577] yielded an inhibition at 50 µM of 103%. Compound `CCCCc1c(CCC)c(=N)c2ccccc2n1C` [MMV007764] has an inhibition at 50 µM of 103%. Work on `CCOc1ccccc1NC(=O)CN1CCN(C(=O)c2ccco2)CC1` [MMV007791] yielded an inhibition at 50 µM of 16%. `CCCCN(CCCC)S(=O)(=O)c1ccc(NC(=O)c2ccco2)cc1` [MMV007881] gave an inhibition at 50 µM of 98%. `CN1C=C(c2ccc3ccccc3n2)C(c2c[nH]c3ccccc23)c2ccccc21` (centres unmarked) [MMV008160] gave an inhibition at 50 µM of 103%. In the case of `COc1cc(OC)cc(N2C(=O)N(Cc3ccc(C(C)(C)C)cc3)c3ccccc3S2(=O)=O)c1` [MMV008173], the inhibition at 50 µM is reported as 78%. For `COc1ccc(C2C(C(=O)Nc3cccc(OC)c3)c3ccccc3C(=O)N2C2CCCCC2)cc1` (centres unmarked) [MMV008455], the inhibition at 50 µM was 94%. `CCCn1c(=N)c(C(=O)NC2CCCCC2)cc2c(=O)n3cccc(C)c3nc21` [MMV008829] was tested, and the inhibition at 50 µM was 54%. `COc1ccc(CNC2CCN(c3ccc(NC(=O)c4cccc(Cl)c4)cc3)CC2)cc1OC` [MMV666067] showed an inhibition at 50 µM of 102%. For `COc1ccc(CCN2CCC(CN(C)Cc3cnn(-c4ccccc4)c3)CC2)cc1` [MMV666069], the inhibition at 50 µM was 101%. `COc1ccccc1C(=O)ON=C(N)Cc1cccc2ccccc12` [MMV666686] showed an inhibition at 50 µM of 104%.

Same assay, conditions: read-out: Inhibition% @ 50 uM rep2
In the case of `CCn1c2c(c(=N)c3c1CCC3)CCCC2` [MMV000340], the inhibition at 50 µM is reported as 102%. In the case of `CCOc1ccc2c(c1)CN(Cc1ccc(Cl)cc1)CO2` [MMV000443], the inhibition at 50 µM is reported as 104%. Compound `COc1ccc(-c2cc(=O)oc3c4c(ccc23)OCN(Cc2ccc(F)cc2)C4)cc1` [MMV000604] has an inhibition at 50 µM of 101%. With `COc1ccc(C(O)(CCC(C)C)C(CN2CCOCC2)c2ccc(Cl)cc2)cc1` (centres unmarked) [MMV000617] the inhibition at 50 µM was 103%. Work on `CCCCCCC(O)(c1ccc(F)cc1)C(CN1CCOCC1)c1ccccc1` (centres unmarked) [MMV000621] yielded an inhibition at 50 µM of 103%. `COc1ccc2sc(N(Cc3cccnc3)C(=O)c3ccc(C#N)cc3)nc2c1` [MMV001239] gave an inhibition at 50 µM of 85%. `O=C1c2ccccc2C2=Nc3ccccc3SC(c3cccc(F)c3)C12` (centres unmarked) [MMV006389] showed an inhibition at 50 µM of 103%. For `CCOc1ccc2nc(C)cc(Nc3ccc(Br)cc3)c2c1` [MMV006522], the inhibition at 50 µM was 104%. Work on `CCOc1c(Br)cc(C2C(C(=O)OC)=CN(C)C=C2C(=O)OC)cc1OC` [MMV006764] yielded an inhibition at 50 µM of 103%. For `OC1=C2C(=Nc3ccccc3SC2c2ccc(Br)cc2)c2ccccc21` (centres unmarked) [MMV007127], the inhibition at 50 µM was 103%. In the case of `COc1ccc(OC)c(C2C3=C(CC(C)(C)CC3=O)N(c3ccc(Cl)c(Cl)c3)C3=C2C(=O)CC(C)(C)C3)c1` [MMV007208], the inhibition at 50 µM is reported as -11%. `Cc1cccc(N2C(=O)C3C(C2=O)C2(c4ccccc4)C(=O)C3(c3ccccc3)C(c3ccc4c(c3)OCO4)=C2c2ccc3c(c2)OCO3)c1` (centres unmarked) [MMV007228] showed an inhibition at 50 µM of 57%. For `Clc1ccc2c(N3CCCC3)ccnc2c1` [MMV007363], the inhibition at 50 µM was 94%. `Cc1ccccc1OCCSc1nc2ccc(NC(=O)c3cccs3)cc2s1` [MMV007396] gave an inhibition at 50 µM of 104%. For `COc1cc2c3cc1Oc1c(OC)c(OC)cc4c1C(Cc1ccc(O)c(c1)Oc1ccc(cc1)CC3N(C)CC2)N(C)CC4` (centres unmarked) [MMV007474], the inhibition at 50 µM was 104%. `O=C(Nc1ccc(C23CC4CC(CC(c5ccccc5)(C4)C2)C3)cc1)c1cccs1` [MMV007574] showed an inhibition at 50 µM of 103%. Work on `Cc1ccccc1OCCSc1nc2ccc(NC(=O)c3ccccc3)cc2s1` [MMV007577] yielded an inhibition at 50 µM of 103%. With `CCCCc1c(CCC)c(=N)c2ccccc2n1C` [MMV007764] the inhibition at 50 µM was 103%. Work on `CCOc1ccccc1NC(=O)CN1CCN(C(=O)c2ccco2)CC1` [MMV007791] yielded an inhibition at 50 µM of 43%. In the case of `CCCCN(CCCC)S(=O)(=O)c1ccc(NC(=O)c2ccco2)cc1` [MMV007881], the inhibition at 50 µM is reported as 99%. In the case of `CN1C=C(c2ccc3ccccc3n2)C(c2c[nH]c3ccccc23)c2ccccc21` (centres unmarked) [MMV008160], the inhibition at 50 µM is reported as 104%. `COc1cc(OC)cc(N2C(=O)N(Cc3ccc(C(C)(C)C)cc3)c3ccccc3S2(=O)=O)c1` [MMV008173] showed an inhibition at 50 µM of 88%. Compound `COc1ccc(C2C(C(=O)Nc3cccc(OC)c3)c3ccccc3C(=O)N2C2CCCCC2)cc1` (centres unmarked) [MMV008455] has an inhibition at 50 µM of 92%. `CCCn1c(=N)c(C(=O)NC2CCCCC2)cc2c(=O)n3cccc(C)c3nc21` [MMV008829] showed an inhibition at 50 µM of 45%. `COc1ccc(CNC2CCN(c3ccc(NC(=O)c4cccc(Cl)c4)cc3)CC2)cc1OC` [MMV666067] showed an inhibition at 50 µM of 99%. `COc1ccc(CCN2CCC(CN(C)Cc3cnn(-c4ccccc4)c3)CC2)cc1` [MMV666069] was tested, and the inhibition at 50 µM was 103%. For `COc1ccccc1C(=O)ON=C(N)Cc1cccc2ccccc12` [MMV666686], the inhibition at 50 µM was 104%.

Reference: article PMC4890880 (ACS infectious diseases, 2016)
